According to ChEMBL document CHEMBL1201862, “PubChem BioAssay data set” (2004):
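All cell lines were grown in 96-well plates and treated with compound for 48 hours. GI50 = concentration required for 50% inhibition of growth.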 Calls of active or inactive are those of the source. Rule as the data show it: active = GI50 up to about 1.1 µM and inactive = higher.

Experiments:
Experiment in all cases: inhibition of tumour cell growth, NCI panel, 48 h
[1] = test system: TK-10
[2] = test system: SW-620
[3] = test system: HOP-62
[4] = test system: A549
[5] = test system: RXF 393
[6] = test system: OVCAR-4
[7] = test system: KM12
[8] = test system: NCI-H522
[9] = test system: COLO 205
[10] = test system: UACC-257
[11] = test system: HL-60
[12] = test system: OVCAR-3
[13] = test system: SK-MEL-28
[14] = test system: 786-0
[15] = test system: DU-145
[16] = test system: OVCAR-5
[17] = test system: M14
[18] = test system: HT-29
[19] = test system: NCI-H226
[20] = test system: MOLT-4

SMILES	GI50 [1]	GI50 [2]	GI50 [3]	GI50 [4]	GI50 [5]	GI50 [6]	GI50 [7]	GI50 [8]	GI50 [9]	GI50 [10]	GI50 [11]	GI50 [12]	GI50 [13]	GI50 [14]	GI50 [15]	GI50 [16]	GI50 [17]	GI50 [18]	GI50 [19]	GI50 [20]
CN(C)S(=O)(=O)Nc1ccccn1	> 100 µM (inactive)	> 100 µM (inactive)	> 100 µM (inactive)	> 100 µM (inactive)	> 100 µM (inactive)	> 100 µM (inactive)	> 100 µM (inactive)	> 100 µM (inactive)	> 100 µM (inactive)	> 100 µM (inactive)	> 100 µM (inactive)	> 100 µM (inactive)	> 100 µM (inactive)	> 100 µM (inactive)	> 100 µM (inactive)	> 100 µM (inactive)	> 100 µM (inactive)	> 100 µM (inactive)	> 100 µM (inactive)	
O=C(O)C(Sc1ccc(Cl)cc1)Sc1ccc(Cl)cc1	48.6 µM (inactive)	58.7 µM (inactive)	79.3 µM (inactive)	29.9 µM (inactive)	> 100 µM (inactive)	48.4 µM (inactive)	37.9 µM (inactive)	32.1 µM (inactive)	25.9 µM (inactive)	44.5 µM (inactive)	33.8 µM (inactive)	32.6 µM (inactive)	70 µM (inactive)	48 µM (inactive)	71 µM (inactive)	53 µM (inactive)	39.6 µM (inactive)	43.3 µM (inactive)	51.9 µM (inactive)	41.3 µM (inactive)
O=C(O)CN1C(=O)CN=C(c2ccccn2)c2cc(Cl)ccc21	> 100 µM (inactive)	> 100 µM (inactive)	> 100 µM (inactive)	> 100 µM (inactive)	> 100 µM (inactive)	> 100 µM (inactive)	> 100 µM (inactive)	> 100 µM (inactive)	> 100 µM (inactive)	> 100 µM (inactive)	4.31 µM (inactive)	> 100 µM (inactive)	> 100 µM (inactive)	> 100 µM (inactive)	> 100 µM (inactive)	> 100 µM (inactive)	> 100 µM (inactive)	> 100 µM (inactive)	> 100 µM (inactive)	1.24 µM (inactive)
Nc1ccccc1C(=O)NC(=O)Nc1ccc(Oc2ncc(Br)cn2)c(Cl)c1	0.0274 µM (active)	< 0.01 µM (active)	0.0109 µM (active)	< 0.01 µM (active)	0.0261 µM (active)	0.698 µM (active)	< 0.01 µM (active)	< 0.01 µM (active)	< 0.01 µM (active)	< 0.0259 µM (active)	< 0.01 µM (active)	< 0.01 µM (active)	< 0.01 µM (active)	< 0.01 µM (active)	< 0.0123 µM (active)	0.438 µM (active)	0.0152 µM (active)	< 0.01 µM (active)	0.0472 µM (active)	< 0.01 µM (active)
O=C(Nc1nc(C23CC4CC(CC(C4)C2)C3)cs1)c1cc2cc(Cl)ccc2oc1=O	> 100 µM (inactive)	> 100 µM (inactive)	> 100 µM (inactive)	> 100 µM (inactive)	> 100 µM (inactive)	> 100 µM (inactive)	> 100 µM (inactive)	> 100 µM (inactive)	> 100 µM (inactive)	> 100 µM (inactive)	> 100 µM (inactive)	> 100 µM (inactive)	> 100 µM (inactive)	> 100 µM (inactive)	> 100 µM (inactive)	> 100 µM (inactive)		> 100 µM (inactive)	> 100 µM (inactive)	> 100 µM (inactive)
CS(=O)(=O)c1cc(=O)c2ccccc2s1	7.28 µM (inactive)	1.86 µM (inactive)	20.5 µM (inactive)	18.4 µM (inactive)	3.91 µM (inactive)	2.9 µM (inactive)	15.5 µM (inactive)	1.24 µM (inactive)	1.76 µM (inactive)	3.54 µM (inactive)	1.84 µM (inactive)	2.61 µM (inactive)	3.72 µM (inactive)	5.55 µM (inactive)	16.1 µM (inactive)	11.8 µM (inactive)	1.85 µM (inactive)	5.01 µM (inactive)	13.7 µM (inactive)	1.72 µM (inactive)
N#C/C(=C\c1ccc(F)cc1)c1nc2ccccc2c(=O)[nH]1	> 100 µM (inactive)	> 100 µM (inactive)	47 µM (inactive)	> 100 µM (inactive)	> 100 µM (inactive)	> 100 µM (inactive)	3.91 µM (inactive)	> 100 µM (inactive)	> 100 µM (inactive)	> 100 µM (inactive)	> 100 µM (inactive)		> 100 µM (inactive)	> 100 µM (inactive)	> 100 µM (inactive)	> 100 µM (inactive)	> 100 µM (inactive)	> 100 µM (inactive)	> 100 µM (inactive)	26.1 µM (inactive)
C/C(C=O)=C/[C@@]1(C)O[C@@H](C)[C@@](C)(O)[C@@H]1O	77.6 µM (inactive)	87.3 µM (inactive)	63.1 µM (inactive)	> 100 µM (inactive)	> 100 µM (inactive)	> 100 µM (inactive)	35.4 µM (inactive)	19 µM (inactive)	40.7 µM (inactive)	22.1 µM (inactive)	> 100 µM (inactive)	49.1 µM (inactive)	> 100 µM (inactive)	17 µM (inactive)	78.9 µM (inactive)	> 100 µM (inactive)	32.5 µM (inactive)	> 100 µM (inactive)	> 100 µM (inactive)	5.62 µM (inactive)
C[C@H](C(O)CC(=O)C(C)(C)O)[C@H]1CC[C@@]2(C)[C@@H]3CC[C@H]4C(C)(C)[C@@H](OC5OC(COC6OC(CO)C(O)C(O)C6O)C(O)C(O)C5O)CC[C@]4(C)C3=CC[C@]12C (stereo not given in full)	> 100 µM (inactive)	> 100 µM (inactive)	> 100 µM (inactive)	> 100 µM (inactive)	> 100 µM (inactive)	> 100 µM (inactive)	> 100 µM (inactive)	> 100 µM (inactive)	> 100 µM (inactive)	> 100 µM (inactive)	> 100 µM (inactive)	> 100 µM (inactive)	> 100 µM (inactive)	> 100 µM (inactive)	> 100 µM (inactive)	> 100 µM (inactive)	> 100 µM (inactive)	> 100 µM (inactive)	> 100 µM (inactive)	
CCOC(=O)c1c(SCCCN2CCCCC2)n(-c2ccccc2)c(=S)n(-c2ccccc2)c1=O	20.6 µM (inactive)	17.7 µM (inactive)	33 µM (inactive)	17.3 µM (inactive)	18.3 µM (inactive)	17.7 µM (inactive)	19.2 µM (inactive)	19.3 µM (inactive)	16.4 µM (inactive)		2.62 µM (inactive)	16.7 µM (inactive)	17.4 µM (inactive)	3.87 µM (inactive)	16.4 µM (inactive)	17.7 µM (inactive)	16.5 µM (inactive)	20.3 µM (inactive)	15.6 µM (inactive)	7.26 µM (inactive)
CC(=O)Nc1ccc(N2C(=O)/C(=C\c3cccc(Oc4ccccc4)c3)S(=O)(=O)C2c2ccccc2)cc1 (stereo not given)	> 100 µM (inactive)	33.3 µM (inactive)	> 100 µM (inactive)	> 100 µM (inactive)	> 100 µM (inactive)	37.8 µM (inactive)	> 100 µM (inactive)	71.8 µM (inactive)	> 100 µM (inactive)	> 100 µM (inactive)	30.3 µM (inactive)	49.4 µM (inactive)	91 µM (inactive)	> 100 µM (inactive)	39.1 µM (inactive)	> 100 µM (inactive)	67 µM (inactive)	41.5 µM (inactive)	66.2 µM (inactive)	28.2 µM (inactive)
O=C1/C(=C/c2ccccc2)N=C(c2ccccc2)N1n1c(-c2ccccc2)nc2ccccc2c1=O	> 100 µM (inactive)	> 100 µM (inactive)	> 100 µM (inactive)	47.6 µM (inactive)	86.5 µM (inactive)	60 µM (inactive)	61.7 µM (inactive)	46.6 µM (inactive)	> 100 µM (inactive)	> 100 µM (inactive)	33.3 µM (inactive)	57.9 µM (inactive)	74.3 µM (inactive)	> 100 µM (inactive)	83 µM (inactive)	> 100 µM (inactive)	> 100 µM (inactive)	70.5 µM (inactive)	64 µM (inactive)	30.6 µM (inactive)
O=c1[nH]/c(=C/c2ccc(OCc3ccccc3)cn2)c(=O)[nH]/c1=C/c1ccc(O)cc1	0.931 µM (active)	0.537 µM (active)	1.88 µM (inactive)	3.05 µM (inactive)	0.865 µM (active)	0.219 µM (active)	1.23 µM (inactive)	0.276 µM (active)	1.45 µM (inactive)	2.56 µM (inactive)	0.298 µM (active)	1.27 µM (inactive)	1.79 µM (inactive)	0.612 µM (active)	0.984 µM (active)	8.32 µM (inactive)	0.94 µM (active)	1.48 µM (inactive)	51.4 µM (inactive)	0.301 µM (active)
CCO[C@@]12CCC3CC4CC[C@@](OCC)(O1)C4C32 (stereo not given in full)	> 100 µM (inactive)	> 100 µM (inactive)	> 100 µM (inactive)	> 100 µM (inactive)	> 100 µM (inactive)	> 100 µM (inactive)	> 100 µM (inactive)	> 100 µM (inactive)	> 100 µM (inactive)	> 100 µM (inactive)	> 100 µM (inactive)	> 100 µM (inactive)	> 100 µM (inactive)	> 100 µM (inactive)	> 100 µM (inactive)	> 100 µM (inactive)	> 100 µM (inactive)	> 100 µM (inactive)	> 100 µM (inactive)	> 100 µM (inactive)
